According to patent US20240101541A1 (priority 2020, published 2024):

Assays:
SARS-CoV-2 3CLpro = SARS-CoV-2 3CLpro (Severe acute respiratory syndrome coronavirus 2, UniProt P0DTD1); assay: biochemical
SARS-CoV-2 = assay: microbe, parasite or virus in culture; format: cell-based; settings: Severe acute respiratory syndrome coronavirus 2, read-out: Antiviral EC50

Row | Structure (SMILES) | IC50 (SARS-CoV-2 3CLpro) | EC50 (SARS-CoV-2)
1 | O=C(Cn1ccc2ccccc21)N(Cc1ccsc1)c1ccc(-c2ccccc2)cc1 | > 100 µM | > 100 µM
2 | O=C(Cn1nnc2ccccc21)N(Cc1ccsc1)c1ccc(-c2ccccc2)cc1 |  | 50 to 100 µM
3 | O=C(Cn1nnc2ccccc21)N(Cc1ccc(-c2ccccc2)cc1)Cc1ccsc1 | > 100 µM | 5 to 50 µM
4 | O=C(Cn1nnc2ccccc21)N(Cc1ccc(-c2ccccn2)cc1)Cc1ccsc1 | 50 to 100 µM | > 100 µM
